Test results published in patent US9492425B2 (priority 2008, dated 2016).

What was measured:
[1] = Solubility in different organic solvents (aliquot addition until dissolution); type: physicochemical
Description: Solubility in different organic solvents was measured using the following protocol. Approximately 25 mg portions of genistein and crystalline genistein sodium dihydrate salt were placed in 48 different vials, separately. 5 volume aliquots of each solvent were added exclusively to a vial. Between each addition, the mixture was checked for dissolution and if no dissolution was apparent, the procedure was continued until dissolution was observed or when 50 volumes had been added.

[2] = SuperSol 1000 kinetic and equilibrium solubility assay
Description: Since both compounds form suspensions in pure deionized H2O, physicochemical properties were assessed from solutions of 100% EtOH as well as mixtures of dH2O and EtOH, specifically, EtOH 50/50 (vol/vol) and EtOH/dH2O 75/25 (vol/vol) according to European Pharmacopeia guidelines 01/2008, Section 2.9.3., Table 2.9.3.5. • The following parameters were measured: • t[MSS] defined as: Time from start of analysis to Maximum Solubilization Speed (min) • C[MSS] defined as: Early kinetic solubility as expressed as concentration at Maximum Solubilization Speed (mg×I^−1) • C[Eq] defined as: Late kinetic solubility as expressed as concentration at Equilibrium Kinetic Solubility (mg×I^−1) • t[Eq] defined as: Time from start of analysis to Equilibrium Kinetic solubility (min) • ΔC [CEq−CMSS] defined as: Difference in concentration between Early and Late Kinetic Solubility as defined above (mg×I^−1) • Δt [CEq−CMSS] defined as: Difference in time between Early and Late Kinetic Solubility endpoints (min) • MSS defined as: Maximum Solubility Speed defined by C[MSS]/t[Mss] (mg×I^−1×min^−1) • ISI defined as: Intrinsic Solubility Index defined by ΔC [CEq−CMSS]/Δt [CEq−CMSS] • The higher the ISI value, the faster the solubilization and the stronger the relative contribution of the late, intrinsic kinetic equilibrium solubility C[Eq]. • KSR defined as: Kinetic Solubility ratio given by C[MSS]/C[Eq]. • The KSR is the numerical ratio indicator of the relative contribution of the early kinetic Solubility to the Overall Late Kinetic Equilibrium Solubility. The higher the KSR Value, the stronger the relative contribution of the early kinetic solubility C[MSS].

[3] = Aqueous solubility (slurry ca. 24 hours, filtered, HPLC-UV); type: physicochemical; details: aqueous buffer, thermodynamic from solid
Description: Aqueous solubility was measured using the following protocol. Slurries of genistein and of crystalline genistein sodium dihydrate salt were made up in aqueous media in which pH was set at 4.5, 6.7, and 7.5, each slurry was shaken at ambient temperature for ca. 24 hours and then filtered using a 0.2 μm filter into a clean vial. The saturated solutions were then diluted and analyzed for API (genistein) content using N—Ac-DL-Methionine on a Chirobiotic T HPLC column and UV detector set at λmax=270 nm. The mobile phase was acetonitrile/water run in isocratic mode over a 30 minute period. The results are presented in Table 3, (BDL=below detection limits).
The aqueous solubility of crystalline genistein potassium salt dihydrate was measured using the protocol described in Example 1.7. Table 16 compares the aqueous solubilities of crystalline genistein potassium salt dihydrate with that of genistein.

[4] = Gravimetric vapor sorption (GVS); type: physicochemical; details: for maximum of water adsorbed (GVS): 0-90% RH sorption cycle; for moisture change (GVS): between 20 and 70 RH % (typical working range of material)
Description: Approximately 15 mg of sample was placed into a wire-mesh vapor sorption balance pan and loaded into an SMS intrinsic vapor sorption balance supplied (Surface Measurement Systems Instruments). The sample was then dried by maintaining a 0% humidity environment until no further weight change was recorded. Subsequently, the sample was then subjected to a ramping profile from 0-90% RH at 10% RH increments, maintaining the sample at each step until equilibration had been attained (99.5% step completion). Upon reaching equilibration, the % RH within the apparatus was ramped to the next step and the equilibration procedure repeated. After completion of the sorption cycle, the sample was then dried using the same procedure. The weight change during the sorption/desorption cycles were then monitored, allowing for the hygroscopic nature of the sample to be determined.

[5] = Disproportionation study (slurry in distilled water ca. 48 hours, XRPD, pH of supernatant); type: physicochemical; details: slurried in distilled water for ca. 48 hours
Description: (§1) A 50 mg sample of crystalline genistein sodium salt dihydrate was slurried in 250 μL distilled water for ca. 48 hours and then checked by XRPD for disproportionation. The pH of the supernatant was also measured using a Corning 240 pH meter. […] The pH of the supernatant after slurrying was 7.1.
as §1, with “A” for “A 50 mg”, “potassium” for “sodium”, “in” for “in 250 μL”, “liquid” for “after slurrying”, “7.3 indicating no disproportionation.” for “7.1.”

[6] = Stability study (80° C., 40° C./75 RH %, light; XRPD after 7 days); details: 40° C./75 RH % for 7 days
Description: Sample stability was tested at 80° C. for 7 days and at 40° C./75 RH % for 7 days. Observations such as color change were noted after 7 days and XRPD of samples were taken after 7 days to investigate any solid form change.

[7] = male, Sprague-Dawley, rat, in vivo
Description: (§2) Genistein and crystalline genistein sodium salt dihydrate were stored at room temperature under desiccant and protected from light. The dosing solutions were prepared fresh from powders on the day of dosing. The dosing solution for intravenous administration (IV) was prepared at 1 mg/mL (free acid) in 50:50 DMSO:saline. The dosing solutions for intraduodenal administration (ID) were prepared at 2 mg/mL (genistein free acid) in a 0.2% sodium carboxymethyl cellulose (Na CMC) solution in water.
(§3) The pharmacokinetics of genistein was evaluated in fasted male Sprague-Dawley rats. Each animal was fitted with a jugular vein cannula (JVC) for blood sampling. Animals intended for intravenous dosing were fitted with an additional JVC for dose administration. Animals intended for intraduodenal dosing were fitted with an intraduodenal cannula (IDC) for dose administration. Surgically modified animals were housed one per cage. All animals were supplied with a commercial rodent diet (LabDiet, Certified Rodent Diet #5002) ad libitum prior to study initiation. […]
(§4) Each blood sample was collected from the rats via a jugular vein cannula and placed into chilled polypropylene tubes containing sodium heparin as an anticoagulant. […] The total concentration of genistein in plasma samples were analyzed by LC-MS/MS after an overnight incubation with glucuronidase/arylsulfatase enzyme mixture. Pharmacokinetic parameters were calculated using the WinNonlin software.
(§5) An LC-MS/MS analytical method for the determination of genistein in rat plasma was developed. Prior to sample analysis, a standard curve was analyzed to determine the specificity, range, and linearity of the method. Total genistein in plasma samples was determined by pre-treating all samples with β-glucuronidase/arylsulfatase enzymes and incubating prior to analysis. […]
(§6) Individual plasma concentrations versus time data for genistein were subjected to non-compartmental analysis using the pharmacokinetic program WinNonlin v. […] Plasma concentrations below the limit of quantitation (10 ng/mL) were assigned a value of zero for PK analysis only.

[8] = Comparative pharmacokinetic study of genistein and crystalline genistein sodium salt dihydrate, intraduodenal and intravenous; details: rats
Description: as §2, §3, §4, §5, §6

Q: What does the source list for O=c1c(-c2ccc(O)cc2)coc2cc(O)cc(O)c12 [Genistein, 4′,5,7-trihydroxyisoflavone-5,7-dihydroxy-3-(4-hydroxyphenyl)-4H-1-benzopyran-4-one, reference compound]?
A: Solubility ([1]; 1,4-dioxane): <10.3 mg/mL; Solubility ([1]; Acetone/Water (50:50)): <10.1 mg/mL; Solubility ([1]; Acetonitrile (MeCN)): <10.1 mg/mL; Solubility ([1]; Cyclohexane): <10.7 mg/mL; Solubility ([1]; Dichloromethane (DCM)): <10.3 mg/mL; Solubility ([1]; Diisopropylether (DIPE)): <10.6 mg/mL; Solubility ([1]; Ethanol (EtOH)): <10.8 mg/mL; Solubility ([1]; Methanol (MeOH)): <10.6 mg/mL; Solubility ([1]; Methyl acetate (MeOAc)): <10.3 mg/mL; Solubility ([1]; Methyl isobutyl ketone (MIBK)): <10.1 mg/mL; Solubility ([1]; Methylethyl ketone (MEK)): <10.8 mg/mL; Solubility ([1]; Toluene): <10.1 mg/mL; Solubility ([1]; Toluene/Dioxane (50:50)): <10.1 mg/mL; C[Eq] ([2]; EtOH 100%): 13.79 mg×I^−1; C[MSS] ([2]; EtOH 100%): 5.81 mg×I^−1; ISI ([2]; EtOH 100%): 2.11; KSR ([2]; EtOH 100%): 0.42; KSR, assessment in words ([2]; EtOH 100%): acceptable; MSS ([2]; EtOH 100%): 23.81 mg×I^−1×min^−1; MSS, assessment in words ([2]; EtOH 100%): good; ΔC [C, − CMSS] ([2]; EtOH 100%): 7.98 mg×I^−1; C[Eq] ([2]; EtOH/dH2O 50/50 (vol/vol)): 12.87 mg×I^−1; C[MSS] ([2]; EtOH/dH2O 50/50 (vol/vol)): 7.43 mg×I^−1; ISI ([2]; EtOH/dH2O 50/50 (vol/vol)): 1.55; KSR ([2]; EtOH/dH2O 50/50 (vol/vol)): 0.58; KSR, assessment in words ([2]; EtOH/dH2O 50/50 (vol/vol)): acceptable; MSS ([2]; EtOH/dH2O 50/50 (vol/vol)): 12.18 mg×I^−1×min^−1; MSS, assessment in words ([2]; EtOH/dH2O 50/50 (vol/vol)): good; ΔC [CEq − CMSS] ([2]; EtOH/dH2O 50/50 (vol/vol)): 5.44 mg×I^−1; C[Eq] ([2]; EtOH/dH2O 75/25 (vol/vol)): 14.03 mg×I^−1; C[MSS] ([2]; EtOH/dH2O 75/25 (vol/vol)): 8.52 mg×I^−1; ISI ([2]; EtOH/dH2O 75/25 (vol/vol)): 1.49; KSR ([2]; EtOH/dH2O 75/25 (vol/vol)): 0.61; KSR, assessment in words ([2]; EtOH/dH2O 75/25 (vol/vol)): good; MSS ([2]; EtOH/dH2O 75/25 (vol/vol)): 19.67 mg×I^−1×min^−1; MSS, assessment in words ([2]; EtOH/dH2O 75/25 (vol/vol)): good; ΔC [CEq − CMSS] ([2]; EtOH/dH2O 75/25 (vol/vol)): 5.51 mg×I^−1

Q: What does the source list for O.O.O=c1c(-c2ccc(O)cc2)coc2cc(O)cc(O)c12.[K] [genistein potassium salt dihydrate]?
A: solubility at 24 h ([3]; Water/slurry pH 4.5, ambient temperature): 0.04 mg/mL; solubility at 24 h ([3]; Water/slurry pH 6.7, ambient temperature): 0.057 mg/mL; solubility at 24 h ([3]; Water/slurry pH 7.5, ambient temperature): 0.069 mg/mL; maximum of water adsorbed (GVS) [4]: 16 wt %; moisture change (GVS) [4]: ca. 3%; disproportionation (XRPD) [5]: No signs of disproportionation; pH of the supernatant after slurrying [5]: 7.3

Q: With O=c1c(-c2ccc(O)cc2)coc2cc(O)cc(O)c12.[K] [genistein potassium salt] as the molecule, how does the “stability, solid form change by XRPD” value [6] read?
A: crystallizes to form genistein potassium salt dihydrate

Q: Which Solubility ([1]; 1,4-dioxane) does the source give for O.O.O=c1c(-c2ccc(O)cc2)coc2cc(O)cc(O)c12.[Na] [genistein sodium salt dihydrate] here?
A: <10.6 mg/mL

Q: What about the Solubility ([1]; Acetone/IPA (50:50)) of the same molecule?
A: 20.2 mg/mL

Q: And the Solubility ([1]; Acetonitrile (MeCN))?
A: <10.4 mg/mL

Q: And the Solubility ([1]; Cyclohexane)?
A: <10.9 mg/mL

Q: What about the Solubility ([1]; Dichloromethane (DCM)) of the same molecule?
A: <10.8 mg/mL

Q: What about the Solubility ([1]; Diisopropylether (DIPE)) of the same molecule?
A: <9.7 mg/mL

Q: What about the Solubility ([1]; Heptane) of the same molecule?
A: <9.9 mg/mL

Q: What about the Solubility ([1]; Methanol (MeOH)) of the same molecule?
A: <8.8 mg/mL

Q: What about the Solubility ([1]; Methyl isobutyl ketone (MIBK)) of the same molecule?
A: <9.0 mg/mL

Q: And the Solubility ([1]; Octanol)?
A: <11 mg/mL

Q: And the Solubility ([1]; Tetrahydrofuran (THF))?
A: <10.4 mg/mL

Q: And the Solubility ([1]; Toluene)?
A: <9.9 mg/mL

Q: What about the Solubility ([1]; Toluene/Dioxane (50:50)) of the same molecule?
A: <9.7 mg/mL

Q: And the “maximum of water adsorbed (GVS)” value [4]?
A: 45 wt %

Q: What about the “moisture change (GVS)” value [4] of the same molecule?
A: ca. 2%

Q: And the “disproportionation (XRPD)” value [5]?
A: No signs of disproportionation

Q: What about the “pH of the supernatant after slurrying” value [5] of the same molecule?
A: 7.1

Q: And the “mean peak plasma concentration (Cmax) fold higher compared to genistein” value [7]?
A: 4.2 fold

Q: What about the “C[Eq]” value ([2]; EtOH 100%) of the same molecule?
A: 11.20 mg×I^−1

Q: What about the “C[MSS]” value ([2]; EtOH 100%) of the same molecule?
A: 10.85 mg×I^−1

Q: What about the ISI ([2]; EtOH 100%) of the same molecule?
A: 0.07

Q: What about the KSR ([2]; EtOH 100%) of the same molecule?
A: 0.97

Q: And the “KSR, assessment in words” value ([2]; EtOH 100%)?
A: excellent

Q: What about the MSS ([2]; EtOH 100%) of the same molecule?
A: 36.90 mg×I^−1×min^−1

Q: What about the “MSS, assessment in words” value ([2]; EtOH 100%) of the same molecule?
A: excellent

Q: And the “ΔC [C, − CMSS]” value ([2]; EtOH 100%)?
A: 0.35 mg×I^−1

Q: What about the “C[Eq]” value ([2]; EtOH/dH2O 50/50 (vol/vol)) of the same molecule?
A: 17.40 mg×I^−1

Q: And the “C[MSS]” value ([2]; EtOH/dH2O 50/50 (vol/vol))?
A: 14.67 mg×I^−1

Q: And the ISI ([2]; EtOH/dH2O 50/50 (vol/vol))?
A: 0.60

Q: What about the KSR ([2]; EtOH/dH2O 50/50 (vol/vol)) of the same molecule?
A: 0.84

Q: And the “KSR, assessment in words” value ([2]; EtOH/dH2O 50/50 (vol/vol))?
A: excellent

Q: And the MSS ([2]; EtOH/dH2O 50/50 (vol/vol))?
A: 20.66 mg×I^−1×min^−1

Q: And the “MSS, assessment in words” value ([2]; EtOH/dH2O 50/50 (vol/vol))?
A: excellent

Q: What about the “ΔC [CEq − CMSS]” value ([2]; EtOH/dH2O 50/50 (vol/vol)) of the same molecule?
A: 2.73 mg×I^−1

Q: And the “C[Eq]” value ([2]; EtOH/dH2O 75/25 (vol/vol))?
A: 15.86 mg×I^−1

Q: What about the “C[MSS]” value ([2]; EtOH/dH2O 75/25 (vol/vol)) of the same molecule?
A: 11.20 mg×I^−1

Q: What about the ISI ([2]; EtOH/dH2O 75/25 (vol/vol)) of the same molecule?
A: 1.26

Q: What about the KSR ([2]; EtOH/dH2O 75/25 (vol/vol)) of the same molecule?
A: 0.71

Q: And the “KSR, assessment in words” value ([2]; EtOH/dH2O 75/25 (vol/vol))?
A: excellent

Q: And the MSS ([2]; EtOH/dH2O 75/25 (vol/vol))?
A: 37.33 mg×I^−1×min^−1

Q: And the “MSS, assessment in words” value ([2]; EtOH/dH2O 75/25 (vol/vol))?
A: excellent

Q: What about the “ΔC [CEq − CMSS]” value ([2]; EtOH/dH2O 75/25 (vol/vol)) of the same molecule?
A: 4.66 mg×I^−1

Q: What about the “time after ID dosing at which maximum plasma concentration (Cmax) was observed” value ([8]; intraduodenal dosing, mean plasma profile (FIG. 13)) of the same molecule?
A: ≤ 15 min

Q: And the “pharmacokinetic profile following IV dosing, compared with genistein” value ([8]; intravenous 1 mg/kg)?
A: not significantly different
